Laboratory results published in patent US9622498B2 (Vera Roasting Company, Inc., priority 2015, dated 2017).

Experiments:
[1] = Solubility of resveratrol in glycerin tested using UV/vis spectroscopy; type: physicochemical
From the text: This low solubility inhibits adequate, reproducible absorption from the gastrointestinal tract. For this reason, poor solubility is closely associated with low bioavailability. […] Glycerin engages in H-bonding interactions at both ends of the molecule, forming a 2:1 H-bonding complex.

[2] = cited from earlier work

## Oc1ccc(C=Cc2cc(O)cc(O)c2)cc1 [resveratrol, 3,5,4′-trihydroxystilbene]
[1]; glycerin versus water
  times more soluble in glycerin than in water: at least 48 times
[1]; glycerin, UV/vis spectroscopy
  solubility of resveratrol in glycerin: ≥ 144 mg/100 mL
[2]
  solubility of resveratrol in water: approximately 3 mg/100 mL
